target: ERK2 enzyme (Homo sapiens (Human), UniProt P28482); experiment: Inhibition assay of ERK (Z'-LYTE kinase assay, Ser/Thr 3 peptide substrate); format: biochemical; conditions: In vitro ERK2 enzyme, 100 μM ATP
Sequence (P28482 whole entry): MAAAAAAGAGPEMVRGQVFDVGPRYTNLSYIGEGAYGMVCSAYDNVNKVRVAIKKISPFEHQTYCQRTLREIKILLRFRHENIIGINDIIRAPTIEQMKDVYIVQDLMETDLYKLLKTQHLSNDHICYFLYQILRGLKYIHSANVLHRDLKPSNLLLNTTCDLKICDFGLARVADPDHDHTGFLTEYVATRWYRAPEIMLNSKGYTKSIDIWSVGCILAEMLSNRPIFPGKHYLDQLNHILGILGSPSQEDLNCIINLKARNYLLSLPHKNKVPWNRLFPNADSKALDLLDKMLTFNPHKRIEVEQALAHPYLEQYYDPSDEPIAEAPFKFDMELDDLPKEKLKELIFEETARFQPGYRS

| SMILES | IC50 |
| --- | --- |
| Cc1cc(-c2n[nH]c3cc4c(cc23)CN(C2(c3ccc(F)cc3)CC2)C(=O)N4)ccn1 [Compound 17] | 50 to 250 nM |
| Cc1cc(-c2n[nH]c3cc4c(cc23)CN([C@@H]2CCCN(CCC(C)C)C2)C(=O)N4)ccn1 [Compound 169] | < 50 nM |
| Cc1cc(-c2n[nH]c3cc4c(cc23)CN([C@@H]2CCCN(C3CCCCC3)C2)C(=O)N4)ccn1 [Compound 194] | 50 to 250 nM |
| Cc1cc(-c2n[nH]c3cc4c(cc23)CN([C@@H]2CCCN(Cc3ccc(F)c(F)c3)C2)C(=O)N4)ccn1 [Compound 190] | < 50 nM |
| COc1ncc(-c2n[nH]c3cc4c(cc23)CN(CCc2cccc(Cl)c2)CC(=O)N4)cn1 [Compound 107] | 250 to 1000 nM |
| COc1ncc(-c2n[nH]c3cc4c(cc23)CN([C@H](C)c2ccc(Cl)cc2)C(=O)N4)cn1 [Compound 95] | < 50 nM |
| O=C1Nc2cc3[nH]nc(-c4ccc(F)cc4)c3cc2CN1Cc1ccc(F)c(Cl)c1 [Compound 40] | 50 to 250 nM |
| Cc1cc(-c2n[nH]c3cc4c(cc23)CN(C2CCN(CC3CC3)CC2)C(=O)N4)ccn1 [Compound 69] | 50 to 250 nM |
| C[C@H](c1ccc(Cl)cc1)N1Cc2cc3c(-c4ccnnc4)n[nH]c3cc2NC1=O [Compound 115] | < 50 nM |
| Cc1cc(-c2n[nH]c3cc4c(cc23)CN([C@@H]2CCCN(CC3CCCC3)C2)C(=O)N4)ccn1 [Compound 138] | 50 to 250 nM |
| Cc1cc(-c2n[nH]c3cc4c(cc23)CN([C@@H]2CCCN(Cc3cc(C5CC5)on3)C2)C(=O)N4)ccn1 [Compound 188] | < 50 nM |
| COc1cc(-c2n[nH]c3cc4c(cc23)CN(Cc2ccc(F)c(Cl)c2)C(=O)N4)ccn1 [Compound 38] | < 50 nM |
| Cc1cc(-c2n[nH]c3cc4c(cc23)CN([C@H](C)c2cccc(Cl)c2)C(=O)N4)ccn1 [Compound 35] | < 50 nM |
| Cc1cc(-c2n[nH]c3cc4c(cc23)CN(CCN2CCOCC2)C(=O)N4)ccn1 [Compound 51] | < 50 nM |
| COc1ccc(-c2n[nH]c3cc4c(cc23)CN([C@H](C)c2cccc(Cl)c2)C(=O)N4)cn1 [Compound 74] | 50 to 250 nM |
| Cc1cc(-c2n[nH]c3cc4c(cc23)CN([C@@H]2CCCN(Cc3c(F)cccc3F)C2)C(=O)N4)ccn1 [Compound 143] | < 50 nM |
| Cc1cc(-c2n[nH]c3cc4c(cc23)CN([C@@H]2CCCN(CCC(F)(F)F)C2)C(=O)N4)ccn1 [Compound 178] | < 50 nM |

| SMILES | IC50 |
| --- | --- |
| Cc1cc(-c2n[nH]c3cc4c(cc23)CN(Cc2ccc(F)c(Cl)c2)C(=O)N4)ccn1 [Compound 8] | < 50 nM |
| Cc1cc(-c2n[nH]c3cc4c(cc23)CN(CCc2ccc(F)cc2)CC(=O)N4)ccn1 [Compound 67] | 250 to 1000 nM |
| Cc1cc(-c2n[nH]c3cc4c(cc23)CN(CCNCc2cccc(Cl)c2)C(=O)N4)ccn1 [Compound 176] | < 50 nM |
| CCC(c1ccccc1)c1cc2cc3c(-c4ccnc(C)c4)n[nH]c3cc2[nH]c1=O (centres unmarked) [Compound 64] | < 50 nM |
| Cc1cc(-c2n[nH]c3cc4c(cc23)CN([C@@H]2CCCN(CC3CCCCC3)C2)C(=O)N4)ccn1 [Compound 141] | 50 to 250 nM |
| O=C1Nc2cc3[nH]nc(-c4cn[nH]c4)c3cc2CN1Cc1cccc(Cl)c1 [Compound 60] | < 50 nM |
| COc1ncc(-c2n[nH]c3cc4c(cc23)CCN(Cc2ccc(F)cc2)C(=O)N4)cn1 [Compound 130] | 50 to 250 nM |
| O=C1Nc2cc3[nH]nc(-c4cncnc4)c3cc2CN1Cc1cccc(Cl)c1 [Compound 123] | < 50 nM |
| COc1ncccc1CN1CCC[C@@H](N2Cc3cc4c(-c5ccnc(C)c5)n[nH]c4cc3NC2=O)C1 [Compound 150] | < 50 nM |
| Cc1cc(-c2n[nH]c3cc4c(cc23)CN(Cc2ccc(C#N)cc2)C(=O)N4)ccn1 [Compound 39] | < 50 nM |
| Cc1cc(-c2n[nH]c3cc4c(cc23)CN(Cc2cscn2)C(=O)N4)ccn1 [Compound 47] | < 50 nM |
| COc1ncc(-c2n[nH]c3cc4c(cc23)CN(Cc2ccc(F)cc2)C(=O)N4)cn1 [Compound 72] | < 50 nM |
| Cc1cc(-c2n[nH]c3cc4c(cc23)CN([C@@H]2CCCN(Cc3cncnc3)C2)C(=O)N4)ccn1 [Compound 166] | < 50 nM |
| Cc1cc(-c2n[nH]c3cc4[nH]c(=O)c([C@H](C)c5ccccc5)cc4cc23)ccn1 [Compound 84] | < 50 nM |
| Cc1cc(-c2n[nH]c3cc4c(cc23)CN(CCN(C)C)C(=O)N4)ccn1 [Compound 46] | 50 to 250 nM |
| O=C1Nc2cc3[nH]nc(-c4ccnnc4)c3cc2CN1[C@@H]1CCCN(Cc2ccccc2F)C1 [Compound 121] | < 50 nM |

same assay, conditions: In vitro, ERK2 enzyme 0.47 ng/μL, 100 μM ATP

| SMILES | IC50 |
| --- | --- |
| COc1ccc(-c2n[nH]c3cc4c(cc23)CN([C@@H]2CCCN(Cc3ccc(F)cc3F)C2)C(=O)N4)cn1 [Compound 273] | < 50 nM |
| Cc1cc(-c2n[nH]c3cc4c(cc23)CN([C@@H]2CN(CC(F)(F)F)C[C@H]2C(C)(C)C)C(=O)N4)ccn1 [Compound 329] | 250 to 1000 nM |
| COc1ncc(-c2n[nH]c3cc4c(cc23)CN([C@H]2CCCN(Cc3ccccc3)C2)C(=O)N4)cn1 [Compound 365] | 50 to 250 nM |
| Cc1cc(-c2n[nH]c3cc4c(cc23)CN(CC2CCOCC2)C(=O)N4)ccn1 [Compound 211] | < 50 nM |
| Cc1cc(-c2n[nH]c3cc4c(cc23)CN(CC2CCCCC2)C(=O)N4)ccn1 [Compound 213] | < 50 nM |
| COc1ccc(-c2n[nH]c3cc4[nH]c(=O)c(C5CCCN(Cc6ccccc6)C5)cc4cc23)cn1 (centres unmarked) [Compound 367] | 50 to 250 nM |
| Cc1cc(-c2n[nH]c3cc4[nH]c(=O)c(C(CO)c5ccccc5)cc4cc23)ccn1 (centres unmarked) [Compound 328] | < 50 nM |
| Cc1cc(-c2n[nH]c3cc4c(cc23)CN([C@@H]2CN(C)C[C@H]2c2ccc(F)cc2)C(=O)N4)cc(C)n1 (racemic) [Compound 305] | 50 to 250 nM |
| Cc1cc(-c2n[nH]c3cc4c(cc23)CN(CC2CCCN(Cc3ccccc3)C2)C(=O)N4)ccn1 (centres unmarked) [Compound 208] | 50 to 250 nM |
| Cc1cc(-c2n[nH]c3cc4c(cc23)CN([C@@H]2CN(CC#N)C[C@H]2c2ccccc2)C(=O)N4)ccn1 (mixture of isomers) [Compound 366] | < 50 nM |
| COc1ncc(-c2n[nH]c3cc4[nH]c(=O)c(C5CCCN(Cc6ccccc6)C5)cc4cc23)cn1 (centres unmarked) [Compound 364] | < 50 nM |
| Cc1cc(-c2n[nH]c3cc4c(cc23)CN(C2CCCCC2)C(=O)N4)ccn1 [Compound 204] | < 50 nM |
| Cc1cc(-c2n[nH]c3cc4[nH]c(=O)c([C@@H](C)c5ccc(F)cc5)cc4cc23)ccn1 [Compound 287] | 50 to 250 nM |
| COc1cc(-c2n[nH]c3cc4c(cc23)CN([C@@H]2CN(CC(F)(F)F)C[C@H]2c2ccccc2)C(=O)N4)ccn1 [Compound 375] | 50 to 250 nM |
| Cc1cc(-c2n[nH]c3cc4c(cc23)CN([C@@H]2CCN(C(C)C(F)(F)F)C2)C(=O)N4)ccn1 (some centres unmarked) [Compound 267] | < 50 nM |
| Cc1cc(-c2n[nH]c3cc4c(cc23)CN(Cc2ccc(C(F)(F)F)cc2)C(=O)N4)cc(C)n1 [Compound 233] | < 50 nM |
| Cc1cc(-c2n[nH]c3cc4c(cc23)CN([C@@H]2CCCN(CC(O)C(C)(C)C)C2)C(=O)N4)ccn1 (some centres unmarked) [Compound 236] | 50 to 250 nM |
| COc1ncc(-c2n[nH]c3cc4c(cc23)CN([C@@H]2CN(C)C[C@H]2c2ccccc2)C(=O)N4)cn1 (mixture of isomers) [Compound 355] | < 50 nM |
| Cc1cc(-c2n[nH]c3cc4c(cc23)CN([C@@H]2CCCN(c3ccc(F)cn3)C2)C(=O)N4)ccn1 [Compound 199] | < 50 nM |

| SMILES | IC50 |
| --- | --- |
| Cn1cc(-c2n[nH]c3cc4c(cc23)CN([C@@H]2CCCN(Cc3ccc(F)cc3F)C2)C(=O)N4)cn1 [Compound 281] | < 50 nM |
| Cc1cc(-c2n[nH]c3cc4c(cc23)CN(CCC2CCOCC2)C(=O)N4)ccn1 [Compound 220] | < 50 nM |
| Cc1cc(-c2n[nH]c3cc4c(cc23)CN([C@@H]2CCCN(Cc3sccc3F)C2)C(=O)N4)ccn1 [Compound 291] | < 50 nM |
| Cc1cc(-c2n[nH]c3cc4c(cc23)CN(Cc2cc(F)cc(F)c2)C(=O)N4)cc(C)n1 [Compound 225] | < 50 nM |
| Cc1cc(-c2n[nH]c3cc4c(cc23)CN(C(C)c2nc(C)c(C)s2)C(=O)N4)ccn1 (centres unmarked) [Compound 286] | < 50 nM |
| CC(c1ccccc1)c1cc2cc3c(-c4ccnc(N5CCOCC5)c4)n[nH]c3cc2[nH]c1=O (centres unmarked) [Compound 325] | < 50 nM |
| CC(c1ccccc1)c1cc2cc3c(-c4cnc(N)nc4)n[nH]c3cc2[nH]c1=O (centres unmarked) [Compound 334] | < 50 nM |
| Cc1ccc(-c2n[nH]c3cc4c(cc23)CN([C@@H]2CCCN(Cc3ccccc3)C2)C(=O)N4)cn1 [Compound 275] | < 50 nM |
| Cc1cc(-c2n[nH]c3cc4c(cc23)CN(Cc2nc(C)c(C)s2)C(=O)N4)ccn1 [Compound 228] | < 50 nM |
| COc1cc(-c2n[nH]c3cc4[nH]c(=O)c(C5CCCN(Cc6ccccc6)C5)cc4cc23)ccn1 (centres unmarked) [Compound 370] | < 50 nM |
| Cc1cc(-c2n[nH]c3cc4c(cc23)CN([C@@H]2CN(C3CCOCC3)C[C@H]2c2ccccc2)C(=O)N4)ccn1 (mixture of isomers) [Compound 359] | 50 to 250 nM |
| Cc1cc(-c2n[nH]c3cc4c(cc23)CN([C@@H]2CCCN(C3CCCC3)C2)C(=O)N4)ccn1 [Compound 215] | 50 to 250 nM |
| Cc1cc(-c2n[nH]c3cc4[nH]c(=O)c(C5CCCN(Cc6cc(F)ccc6F)C5)cc4cc23)ccn1 (centres unmarked) [Compound 336] | < 50 nM |
| Cc1cc(-c2n[nH]c3cc4c(cc23)CN([C@@H]2CN(CC(F)(F)F)C[C@H]2C2CC2)C(=O)N4)ccn1 (mixture of isomers) [Compound 319] | 50 to 250 nM |
| Cc1cc(-c2n[nH]c3cc4c(cc23)CN([C@@H]2CN(CC(F)(F)F)C[C@H]2C(C)C)C(=O)N4)ccn1 (mixture of isomers) [Compound 322] | 50 to 250 nM |
| Cc1cc(-c2n[nH]c3cc4c(cc23)CN(C2CCOC(C)(C)C2)C(=O)N4)ccn1 (centres unmarked) [Compound 219] | < 50 nM |
| Cc1cc(-c2n[nH]c3cc4c(cc23)CN([C@@H]2CCN(c3ccc(F)cn3)C2)C(=O)N4)ccn1 [Compound 257] | 50 to 250 nM |
| Cc1cc(-c2n[nH]c3cc4c(cc23)CN(C2CCC2)C(=O)N4)ccn1 [Compound 243] | < 50 nM |
| COc1ncc(-c2n[nH]c3cc4c(cc23)CN([C@@H]2CCCN(Cc3ccc(F)cc3F)C2)C(=O)N4)cn1 [Compound 280] | < 50 nM |

— patent publication US9624228B2, “Inhibitors of ERK and methods of use” (KURA ONCOLOGY, INC., priority 2013, dated 2017)
